Laboratory results reported in paper PMC6278656, “Synthesis and Biological Evaluation of Phaeosphaeride A Derivatives as Antitumor Agents” (Molecules, 2018).

Tests used:
[1] = test system: human embryonic fibroblasts HEF; test: MTT cytotoxicity assay, HEF (control cells); type: cell-based; conditions: Fibroblast, 72 h, n = 3, ± SD, read-out: Adhesive Cell Cultures, IC50 HEF
Method: (§1) All newly synthesized PPA derivatives 1–8 were evaluated for their anti-proliferative activity against human breast cancer MCF-7, human prostate adenocarcinoma PC-3, human colorectal cancer HCT-116, human lung cancer A549, human chronic myelogenous leukemia K562, human acute monocytic leukemia THP-1, human multiple myeloma RPMI8226, human acute T-cell leukemia Jurkat, human multiple myeloma NCI-H929, and human embryonic fibroblasts HEF cell lines by MTT assays. All cells were incubated with different concentrations of PPA derivatives for 72 h, with etoposide and PPA used as reference compounds. The anticancer activity of the tested compounds was described as the concentration of drug inhibiting 50% cell growth IC50 (Table 1 and Table 2).
(§2) ^1H-NMR spectra were acquired on an AVANCE III 400 MHz NMR spectrometer (Bruker, Rheinstetten, Germany) in CDCl3. Optical rotations were acquired on a Polaar 3005 Polarimeter (Optical Activity, Huntingdon, Great Britain) using a 2.5 cm cell with a Na 589 nm filter and the concentration of samples was denoted as c. Mass spectra data were acquired on a TSQ Quantum Access Max Mass spectrometer (Thermo Fisher Scientific, Waltham, MA, USA). High-resolution mass spectra (HRMS) were acquired on a LTQ Orbitrap Velos spectrometer (Thermo Scientific) and on a Bruker MicrOTOF. FTIR spectra were acquired on an IR Affinity-1 spectrometer (Shimadzu, Thermo Scientific). Organic solvents used were dried by standard methods when necessary. Commercially available reagents were used without further purification. All reactions were monitored by TLC with silica gel coated plates (EMD/Merck KGaA, Darmstadt, Germany), with visualization by UV light and by charring with 0.1% ninhydrin in EtOH. Column chromatography was performed using Merck 60 Å 70–230 mesh silica gel. The optical density was determined using a Multiskan FC spectrophotometer (Thermo Scientific) at a wavelength of 540 nm when using the MTT assay.
(§3) MCF-7 (breast cancer), PC-3 (prostate adenocarcinoma), HCT-116 (colorectal cancer cell), A549 (lung cancer), K562 (chronic myelogenous leukemia), THP-1 (acute monocytic leukemia), and RPMI8226 (multiple myeloma), Jurkat (acute T-cell leukemia), HEF (human embryonic fibroblasts) was purchased from the Russian Academy of Sciences Cells Bank (Institute of Cytology of the Russian Academy of Sciences, Saint Petersburg, Russian Federation). Multiple myeloma cell line NCI-H929 was purchased from ATCC (USA). The MCF-7, A549 and HEF (human embryonic fibroblasts) were cultured in DMEM medium. Other cell lines were cultured in RPMI1640 medium, (PanEco, Russia) supplemented with 10% fetal bovine serum (GE Healthcare LifeSciences, São Paulo, Brazil), and gentamicin at a concentration of 40 μg/mL and cultured at 37 °C in a humidified atmosphere containing 5% CO2. All experiments were performed with cells at passages 3 to 7 in the logarithmic phase of growth.
(§4) Cells were seeded into 96-well plates of 5 × 10^3 for adhesive cultures and 20 × 10^3 for suspension cultures per well in 90 μL and 135 μL of culture medium, respectively. The test substances were dissolved in DMSO to a concentration of 1 × 10^−2 M. For subsequent dilution of the substances, a serum-free culture medium was used as the diluent. Final concentration of DMSO in wells was no more than 1%. […] Substances were added to the cells in 3–4 replicates after 24 h for adhesive cultures and immediately for suspension cultures. 10–15 μL of serum-free medium was added to the control wells with non-exposed cells. Cells were cultured for 72 h at 37 °C in an atmosphere of 5% CO2.

[2] = test system: human multiple myeloma RPMI8226 cells; test: MTT cytotoxicity assay, RPMI8226; type: cell-based; conditions: for IC50: Homo sapiens, RPMI-8226, MTT, 72 h, n = 3, ± SD, read-out: Suspension Cell Cultures, IC50 RPMI8228
Method: as §1, §2, §3, §4

[3] = test system: human multiple myeloma NCI-H929 cells; test: MTT cytotoxicity assay, NCI-H929; type: cell-based; conditions: for IC50: Homo sapiens, MTT, 72 h, n = 3, ± SD, read-out: Suspension Cell Cultures, IC50 NCI-Н929
Method: as §1, §2, §3, §4

[4] = Acute intraperitoneal toxicity study; type: in vivo; conditions: male, outbred (printed 'outbreed'), mouse, in vivo, ip, mice, single i.p. injection, 14 days
Method: (§5) Six to eight-week-old outbreed male mice were purchased from the Rappolovo Animal Farm of the Russian Academy of Sciences. Animals were group housed in solid bottom polycarbonate cages (3–5 animals/cage) and provided with sterilized pelleted food and pure water ad libitum.
(§6) Thirty mice were randomly assigned to the acute toxicity study. Animals in experimental groups ([…]) received a dose formulation containing compound 6 solution in 5% DMSO at various dosages (8.25, 82.5 and 200 mg/kg) via single i.p. injection. Mice in the control group treated with vehicle (5% DMSO). The location of the i.p. injection was in the lower left abdominal quadrant. […] After treatments, the following parameters and end points were evaluated for 14 days: mortality, clinical signs, body weight, food consumption, locomotion, salivation, diarrhea, and lethargy. The maximum tolerated dose in this study is defined as the highest dose that will be tolerated and not produce major life-threatening toxicity for the study duration. All experimental procedures were performed according to the principles and guidelines for the care and use of laboratory animals. The animals were sacrificed by carbon dioxide asphyxiation and cervical dislocation. All efforts were made to minimize suffering. Post mortem evaluation included gross examination for all animals at terminal necropsy and calculation of organ mass coefficients. No histopathological examinations were performed.

[5] = test system: mice; test: Acute intraperitoneal toxicity study; type: in vivo
Method: as §5, §6

[6] = test system: human chronic myelogenous leukemia K562 cells; test: MTT cytotoxicity assay, K562; type: cell-based; conditions: for IC50: Homo sapiens, MTT, 72 h, n = 3, ± SD, read-out: Suspension Cell Cultures, IC50 К562
Method: as §1, §2, §3, §4

[7] = test system: human breast cancer MCF-7 cells; test: MTT cytotoxicity assay, MCF-7; type: cell-based; conditions: MCF7, 72 h, n = 3, ± SD, read-out: Adhesive Cell Cultures, IC50 MCF-7
Method: as §1, §2, §3, §4

[8] = test system: human lung cancer A549 cells; test: MTT cytotoxicity assay, A549; type: cell-based; conditions: 72 h, n = 3, ± SD, read-out: Adhesive Cell Cultures, IC50 A549
Method: as §1, §2, §3, §4

[9] = test system: human acute monocytic leukemia THP-1 cells; test: MTT cytotoxicity assay, THP-1; type: cell-based; conditions: 72 h, n = 3, ± SD, read-out: Suspension Cell Cultures, IC50 THP-1
Method: as §1, §2, §3, §4

[10] = test system: human acute T-cell leukemia Jurkat cells; test: MTT cytotoxicity assay, Jurkat; type: cell-based; conditions: for IC50: Homo sapiens, MTT, 72 h, n = 3, ± SD, read-out: Suspension Cell Cultures, IC50 Jurkat
Method: as §1, §2, §3, §4

[11] = test system: human prostate adenocarcinoma PC-3 cells; test: MTT cytotoxicity assay, PC-3; type: cell-based; conditions: for IC50: Homo sapiens, MTT, 72 h, n = 3, ± SD, read-out: Adhesive Cell Cultures, IC50 PC-3
Method: as §1, §2, §3, §4

[12] = test system: human colorectal cancer HCT-116 cells; test: MTT cytotoxicity assay, HCT-116; type: cell-based; conditions: for IC50: Homo sapiens, MTT, 72 h, n = 3, ± SD, read-out: Adhesive Cell Cultures, IC50 HCT-116
Method: as §1, §2, §3, §4

[13] = test system: mice; design: method as in RTECS # KC0190000; conditions: i.p., ref RTECS # KC0190000; cited from earlier work

C=C1C2=C(C(=O)N1OC)[C@@H](N1CCCC1)[C@@](C)(O)[C@H](CCCCC)O2 [Compound 6, (2S,3R,4R)-3-Hydroxy-6-methoxy-3-methyl-7-methylene-2-pentyl-4-pyrrolidin-1-yl-3,4,6,7-tetrahydro-pyrano[2,3-c]pyrrol-5(2H)-one]
IC50 [1]: 4 ± 0.17 µM | IC50 [2]: 0.63 ± 0.23 µM | fold increase in anticancer activity comparative to etoposide ([2]; RPMI8226): 7 fold | fold stronger than the reference compound PPA ([2]; RPMI8226): 14.5 fold | fold increase in anticancer activity comparative to etoposide [3]: 4 fold | fold stronger than the reference compound PPA [3]: 28 fold | IC50 [3]: 0.23 ± 0.02 µM | LD50 at 14 days ([4]; not determined, believed to be more than, read-out: Median lethal dose (LD50)): > 200 mg/kg | MTD at 14 days ([4]; read-out: Maximum tolerated dose): ≥ 82.5 mg/kg | toxicity in vivo comparative to etoposide ([5]; mice, i.p.): less toxic | effect on mean body weight or mass coefficients (spleen, liver, heart, kidney, lung, thymus, and adrenal) ([5]; mouse, in vivo, ip): No effect | gross abnormalities in the organs tested ([5]; mouse, in vivo, ip): No gross abnormalities | fold increase in anticancer activity comparative to etoposide [6]: 16 fold | fold stronger than the reference compound PPA [6]: 37 fold | IC50 [6]: 0.54 ± 0.03 µM | IC50 [7]: 3.25 ± 0.64 µM | IC50 [8]: 10.1 ± 0.5 µM | IC50 [9]: 2.05 ± 0.21 µM | fold increase in anticancer activity comparative to etoposide [10]: 1.5 fold | fold stronger than the reference compound PPA [10]: 17.5 fold | IC50 [10]: 0.55 ± 0.29 µM | fold increase in anticancer activity comparative to etoposide [11]: 13.5 fold | fold stronger than the reference compound PPA [11]: 160 fold | IC50 [11]: 0.2 ± 0.07 µM | fold increase in anticancer activity comparative to etoposide [12]: 47 fold | fold stronger than the reference compound PPA [12]: 51 fold | IC50 [12]: 0.47 ± 0.01 µM

COc1cc([C@@H]2c3cc4c(cc3[C@@H](O[C@@H]3O[C@@H]5CO[C@@H](C)O[C@H]5[C@H](O)[C@H]3O)[C@H]3COC(=O)[C@H]23)OCO4)cc(OC)c1O [Etoposide, etoposide, reference compound]
IC50 [1]: > 100 µM | Intraperitoneal LD50 [13]: 64 mg/kg | IC50 [2]: 4.6 ± 0.28 µM | IC50 [3]: 0.92 ± 0.03 µM | IC50 [6]: 8.47 ± 0.95 µM | IC50 [7]: 9.6 ± 0.27 µM | IC50 [8]: > 100 µM | IC50 [9]: 0.83 ± 0.21 µM | IC50 [10]: 0.88 ± 0.74 µM | IC50 [11]: 2.7 ± 0.05 µM | IC50 [12]: 22 ± 1.1 µM

C=C1C2=C(C(=O)N1OC)[C@H](O)[C@@](C)(O)[C@H](CCCCC)O2 [PPA, phaeosphaeride A]
IC50 [1]: 19.1 ± 0.25 µM | IC50 [2]: 9.15 ± 0.64 µM | IC50 [3]: 6.5 ± 0.3 µM | IC50 [6]: 20.5 ± 1.46 µM | IC50 [7]: 20.3 ± 0.8 µM | IC50 [8]: 41.1 ± 2.6 µM | IC50 [9]: 19.1 ± 0.45 µM | IC50 [10]: 9.7 ± 0.42 µM | IC50 [11]: 32.1 ± 0.77 µM | IC50 [12]: 24.2 ± 0.75 µM
